Here are results for three molecules from paper PMC7261172, “Peptides containing the PCNA interacting motif APIM bind to the β-clamp and inhibit bacterial growth and mutagenesis” (Nucleic Acids Research, 2020).

For one data set, the system named is S.epidermidis (MRSE). It is filed as cell-based, Staphylococcus epidermidis. Conditions: 24 h. How it is done: (§1) Briefly, bacterial suspension in Mueller-Hinton Broth was adjusted to 0.5 McFarland and diluted to 5 × 10^5 CFU/ml. The suspension (0.1 ml) was seeded in polypropylene microtiter plates (Greiner), 5 × 10^4 CFU/well. APIM-peptides were added as 10% of the total volume. Initial inoculums were quantified by seeding on agar for verification of the estimated CFU/mL. After 24 hours (h) incubation at 37°C, the microtiter plates were inspected for visible growth.

The test system of the next data set is E. coli BL21. It is filed as cell-based, Escherichia coli. Conditions: Mueller-Hinton Broth, 5 × 10^5 CFU/ml, 24 h, 37°C; average of ≥3 independent biological experiments. The method, then: as §1
Data set [1] has as its system E. coli MG1655. The class given is cell-based, Escherichia coli. Conditions: Mueller-Hinton Broth, 5 × 10^5 CFU/ml, 24 h, 37°C; average of ≥3 independent biological experiments. The method, then:
as §1

In the next data set the target is T1, E.coli β-clamp (Escherichia coli, UniProt P0A988).
T1 construct: made in house
The data set can be described thus: Microscale thermophoresis (MST) β-clamp binding. Conditions: cell penetrating peptides, MST buffer with 2% fetal bovine serum, initial in vitro binding experiments, bounds given. The method, then: Purified E.coli β-clamp ([49]) was labeled using the RED-Maleimide Labelling Kit (NanoTemper Technologies, GmbH) according to the manufacturer's instructions applying a concentration of 20 μM protein at room temperature. The ligands, cell penetrating APIM-peptides, were dissolved and diluted in supplemented Microscale thermophoresis (MST) buffer (50 mM Tris–HCl pH 7.5, 150 mM NaCl, 10 mM MgCl2) with 2% fetal bovine serum and incubated for 10 min in room temperature. Series of 1:1 dilutions (16×), producing ligand concentrations ranging from 500 μM to 15 nM, were made. Each ligand solution was further diluted 1:1 with fluorescent labeled β-clamp (diluted in MST buffer, 3 nM) and incubated for 10 min. Fluorescence was measured for each protein-ligand sample using a Monolith NT.115 instrument (20% MST power and 100% LED power) and Monolith NT Standard Treated Capillaries (both NanoTemper Technologies, GmbH). To calculate the KD’s, fluorescence signals were plotted and analyzed using the supplemented software (NT Analysis software version 1.5.41 and MO.affinity analysis version 2.2.4, NanoTemper Technologies). Denaturation with SD-buffer (4% sodium dodecyl sulphate and 40 mM DTT) and re-measurement of total fluorescence confirmed that the observed change in fluorescence was due to ligand binding event.

Data set [2] relates to E. coli MG1655. Briefly: Rif^R mutagenicity assay, added cell penetrating peptides. The class given is cell-based, Escherichia coli. Conditions: spontaneous; for Mutation frequency, added peptides: E. coli MG1655, cell penetrating peptide 20 μM, average ± SEM, RWLVK n = 11, RFSLK n = 4, RWLK n = 7, R11 n = 5, control 10.5 ± 2.2. The method, then:
(§2) The rifampicin resistance (Rif^R) mutagenicity assay was performed as described in ([50]) with some modifications. Briefly, E. coli BL21 expressing peptide variants were induced with (IPTG) (1 mM) at OD600 = 0.3–0.4 and cultured at 37°C, for 2 h before harvested. Bacteria from large culture volumes (up to 50 ml) were plated in order to obtain ∼100 Rif^R colonies per dish. The anti-mutagenic effect of cell penetrating APIM-peptides in E. coli MG1655 was done by adding 20 μM peptide at OD600 = 0.01, and the cells were cultured for 30 min. Next, the cells were pelleted and washed with PBS before UV-irradiated in (50 μl) PBS (2 mJ UVC/cm^2), re-suspended in 2.5 ml LB and cultured in 37°C for 2 h before plating on LB plates with and without Rif (100 μg/ml). The number of Rif^R colonies/ total CFU was determined after 1 and 2 days, respectively. Significance was calculated by using a two-tailed, paired, students t-test. Gentamicin resistance (Gen^R) was examined using a gentamicin sensitive clinical isolate of S. epidermidis. […] The cultures were grown in a shaking incubator (37°C) and were re-inoculated (1:100) every 24 h in fresh TSB and supplements. The cultures were plated on blood agar plates with and without gentamicin (10 mg/l) every day for 4 days, and the frequency of Gen^R colonies was determined by calculating the number of Gen^R colonies/total CFU.

For data set [3], the system named is gentamicin sensitive clinical isolate of S. epidermidis. The data set can be described thus: Gentamicin resistance (Gen^R) mutation frequency assay. The class given is cell-based, Staphylococcus epidermidis. Conditions: peptide 3 μM, 4 days, daily re-inoculation 1:100 in TSB, n≥ 4; Figure 4B. The method, then: as §2
In a further data set the test system is MRSA 43484. The data set can be described thus: Murine skin wound infection model. Conditions: topical.
A further data set addresses β-clamp. Conditions: read-out: KD for the β-clamp; cited from earlier work. The source says: Next, we examined the direct interaction between the β-clamp and octamer peptides containing RWLVK and RALVK (i.e. without the cell penetrating part of the peptide) by SPR.
Data set [4] relates to clinical isolates of multidrug-resistant S. epidermidis. Briefly: Inhibition of growth (OD600) of clinical isolates. Conditions: most sensitive clinical isolate (isolate 1); same molar concentration as the full-length RWLVK-peptide; Figure 1B. It is filed as cell-based, Staphylococcus epidermidis. The method, then: Growth experiments were performed in Luria-Bertani broth (LB) media, Tryptic soy broth (TSB) or LB agar at 37°C, antibiotic selections were performed using the following concentrations: kanamycin 30 μg/ml, chloramphenicol 34 μg/ml and rifampicin 100 μg/ml.

The next data set has as its system E. coli MG1655 cells. The data set can be described thus: Replication assay (flow cytometry of DNA content, Rif/Cpx run-out). The class given is cell-based, Escherichia coli. Conditions: up to 15 μM peptide (above MIC), then Rif and Cpx run-out. How it is done: E. coli MG1655 cells were grown at 37°C in glucose-CAA medium (AB minimal medium ([46]) supplemented with 10 μg/ml thiamine, 0.2% glucose and 0.5% casamino acids) for several generations to ensure balanced growth. At an OD600 = 0.15, the cells were added 2, 4 or 6 μM RWLVK* peptide or 2, 4, 6 or 15 μM R11 peptide. Growth was continued for 2–5 min. After peptide treatment, cells were either harvested directly or treated with rifampicin (Rif) (300 μg/ml) and cephalexin (Cpx) (10 μg/ml) for the time equivalent of three to four generations before harvesting. Both directly harvested and Rif and Cpx treated cells were re-suspended in TE buffer (10 mM Tris–HCl, pH 8.0, 1 mM EDTA, pH 8.0) and fixed in 70% ethanol. Fluorescein isothiocyanate (FITC, Sigma-Aldrich) ([47]) was used for protein staining (representing mass), and Hoechst 33258 was used for DNA staining (Sigma-Aldrich) ([48]). Flow cytometry was performed with an LSR-II flow cytometer equipped with a 488 nm argon-ion laser and a 355 nm krypton laser (BD Biosciences), and the results were analyzed using FlowJo software (Tree Star, Inc.). Rif and Cpx inhibit the initiation of replication and cell division, respectively. Cells cannot initiate a new round of replication after these drugs are added but can complete ongoing rounds of replication (without dividing). […]

T1 sequence (P0A988 whole entry): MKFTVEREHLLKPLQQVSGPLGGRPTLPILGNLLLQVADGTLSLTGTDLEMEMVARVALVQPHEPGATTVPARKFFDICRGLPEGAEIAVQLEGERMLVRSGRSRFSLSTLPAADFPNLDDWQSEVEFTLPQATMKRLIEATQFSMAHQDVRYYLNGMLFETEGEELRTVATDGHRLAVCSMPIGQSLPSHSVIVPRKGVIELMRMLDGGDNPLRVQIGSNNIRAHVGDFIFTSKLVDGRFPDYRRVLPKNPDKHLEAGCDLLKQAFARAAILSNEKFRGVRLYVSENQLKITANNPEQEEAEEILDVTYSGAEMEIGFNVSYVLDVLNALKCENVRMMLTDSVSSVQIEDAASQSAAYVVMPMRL
Experimental for MRSA 43484: The experimental procedure is modified from a previously described skin infection model in mice ([52]). A total of 32 Balb/C female mice (18–22 g, Taconic, Denmark) were used for the experiment. The mice were treated orally with analgesia, 45 μl Nurofen®junior (Novartis 20 mg/ml ∼30 mg/kg), 30–60 min before the experiment. The mice were anesthetized with 0.15 ml diluted Zoletil mix (2 ml Zoletil mix + 5.2 ml sterile saline + 2.8 ml Torbugesix 1:100) before the fur was removed on a 2 × 3 cm area of the back with an electric shaver and a razor. At last, a skin lesion was made on each mouse with a dermal curette (Miltex 335710). A total of 10 μl inoculum containing 10^7 CFU MRSA 43484 (in saline) was added to a 1 cm^2 area of the skin lesion of each mouse. One group of animals (six mice) were sacrificed 1 day after inoculation, before any treatment was given, to quantify the inoculum. The remaining mice were given topical treatment twice a day (9 a.m and 3 p.m) for 3 days; APIM-peptide (RFSLK, Innovagen SE, 12.8 mg/ml in 1% methyl cellulose gel containing 10% glycerol) or Fusidic acid 2% ointment (LeoPharma). A volume of 50 μl was used for each treatment, spread out on the skin lesion. […] The treated animals and the control group were sacrificed on day 4, one day after the last treatment. […]

In the case of “Ac-MDRFSLKWKKKRKIRRRRRRRRRRR-NH2 [RFSLK]”, the “Minimal Inhibitory Concentration (MIC) S.epidermidis (MRSE)” value in the data set with S.epidermidis (MRSE) turned out to be 3 µM. The “Minimal Inhibitory Concentration (MIC) E. coli BL21” value with E. coli BL21 worked out at 4 µM. Further, in the data set on E. coli MG1655 [1], the “Minimal Inhibitory Concentration (MIC) E. coli MG1655” value came to 7.5 µM. Moreover, on E.coli β-clamp (read-out: KD for the β-clamp (MST)), the Kd was less than 50000 nM. Also, in the data set with E. coli MG1655 [2], the “Mutation frequency, added peptides” value is reported as 4.1 ± 1.6 * Rif^R/10^8 CFU. The “Mutation frequency (Gen^R/10^8 CFU) compared to the control, peptide alone” value in data set [3] is reported as “did not change the mutation frequency”. Besides, the “Bacterial load in the infected lesions (CFU/skin lesion) on day 4” value with MRSA 43484 (50 μl twice a day for 3 days, 12.8 mg/ml (3.5 mM) in 1% methyl cellulose gel with 10% glycerol, compared to controls, Figure 5) is given as “significantly reduced the bacterial load”. In addition, in the data set on MRSA 43484 (twice a day for 3 days, mice), the “Toxicity of the APIM-peptide gel” value is on record as “no toxicity”.

For Ac-EQVELEFD [Pol III peptide], the Kd at β-clamp is approximately 2000 nM.

Regarding `N=C(N)NCCC[C@H](NC(=O)[C@H](CCCNC(=N)N)NC(=O)[C@H](CCCNC(=N)N)NC(=O)[C@H](CCCNC(=N)N)NC(=O)[C@H](CCCNC(=N)N)NC(=O)[C@H](CCCNC(=N)N)NC(=O)[C@H](CCCNC(=N)N)NC(=O)[C@H](CCCNC(=N)N)NC(=O)[C@H](CCCNC(=N)N)NC(=O)[C@H](CCCNC(=N)N)NC(=O)[C@@H](N)CCCNC(=N)N)C(N)=O` [R11, reference compound], the “Minimal Inhibitory Concentration (MIC) S.epidermidis (MRSE)” value in the data set on S.epidermidis (MRSE) was 12 µM. The “Minimal Inhibitory Concentration (MIC) E. coli BL21” value in the data set with E. coli BL21 turned out to be 11 µM. Also, the “Minimal Inhibitory Concentration (MIC) E. coli MG1655” value in the data set on E. coli MG1655 [1] turned out to be 14.5 µM. In [4], the “Inhibition of growth (OD600), % of untreated parallel” value is recorded as “no effect”. The “KD for the β-clamp (MST)” value on E.coli β-clamp is on record as “no binding was detected”. In addition, in the data set with E. coli MG1655 cells, the “Inhibition of DNA replication” value is recorded as “did not have any effect”. In the data set on E. coli MG1655 [2] (E. coli MG1655, 20 μM), the “Effect of added cell penetrating peptide on the mutation frequency” value is reported as “did not affect the mutation frequency”. Besides, the “Mutation frequency, added peptides” value in the data set with E. coli MG1655 [2] stood at 7.2 ± 3.9 Rif^R/10^8 CFU.
